Experimental data: BigSolDB 2.1

Question: For `CC1=C(O)C(=O)C(C)O1` (configuration not stated), which solubility (mole fraction) (in ethanol, 283.15 K) is on record?
Answer: 0.12

Question: And the solubility (mole fraction) (in ethanol, 288.15 K)?
Answer: 0.151

Question: What about the solubility (mole fraction) (in ethanol, 293.15 K) of the same molecule?
Answer: 0.188

Question: And the solubility (mole fraction) (in ethanol, 298.15 K)?
Answer: 0.234

Question: What about the solubility (mole fraction) (in ethanol, 303.15 K) of the same molecule?
Answer: 0.287

Question: And the solubility (mole fraction) (in ethanol, 308.15 K)?
Answer: 0.351

Question: And the solubility (mole fraction) (in ethanol, 313.15 K)?
Answer: 0.427

Question: What about the solubility (mole fraction) (in methanol, 283.15 K) of the same molecule?
Answer: 0.143

Question: What about the solubility (mole fraction) (in methanol, 288.15 K) of the same molecule?
Answer: 0.174

Question: And the solubility (mole fraction) (in methanol, 293.15 K)?
Answer: 0.21

Question: And the solubility (mole fraction) (in methanol, 298.15 K)?
Answer: 0.257

Question: And the solubility (mole fraction) (in methanol, 303.15 K)?
Answer: 0.31

Question: What about the solubility (mole fraction) (in methanol, 308.15 K) of the same molecule?
Answer: 0.374

Question: And the solubility (mole fraction) (in methanol, 313.15 K)?
Answer: 0.449

Question: What about the solubility (mole fraction) (in n-butanol, 283.15 K) of the same molecule?
Answer: 0.0954

Question: And the solubility (mole fraction) (in n-butanol, 288.15 K)?
Answer: 0.124

Question: What about the solubility (mole fraction) (in n-butanol, 293.15 K) of the same molecule?
Answer: 0.156

Question: What about the solubility (mole fraction) (in n-butanol, 298.15 K) of the same molecule?
Answer: 0.196

Question: What about the solubility (mole fraction) (in n-butanol, 303.15 K) of the same molecule?
Answer: 0.247

Question: And the solubility (mole fraction) (in n-butanol, 308.15 K)?
Answer: 0.307

Question: And the solubility (mole fraction) (in n-butanol, 313.15 K)?
Answer: 0.382

Question: What about the solubility (mole fraction) (in n-hexane, 283.15 K) of the same molecule?
Answer: 0.0054

Question: And the solubility (mole fraction) (in n-hexane, 288.15 K)?
Answer: 0.0073

Question: And the solubility (mole fraction) (in n-hexane, 293.15 K)?
Answer: 0.0096

Question: And the solubility (mole fraction) (in n-hexane, 298.15 K)?
Answer: 0.0125

Question: What about the solubility (mole fraction) (in n-hexane, 303.15 K) of the same molecule?
Answer: 0.0163

Question: And the solubility (mole fraction) (in n-hexane, 308.15 K)?
Answer: 0.0211

Question: And the solubility (mole fraction) (in n-hexane, 313.15 K)?
Answer: 0.0271

Question: And the solubility (mole fraction) (in n-propanol, 283.15 K)?
Answer: 0.11

Question: What about the solubility (mole fraction) (in n-propanol, 288.15 K) of the same molecule?
Answer: 0.138

Question: What about the solubility (mole fraction) (in n-propanol, 293.15 K) of the same molecule?
Answer: 0.174

Question: What about the solubility (mole fraction) (in n-propanol, 298.15 K) of the same molecule?
Answer: 0.216

Question: What about the solubility (mole fraction) (in n-propanol, 303.15 K) of the same molecule?
Answer: 0.268

Question: And the solubility (mole fraction) (in n-propanol, 308.15 K)?
Answer: 0.332

Question: What about the solubility (mole fraction) (in n-propanol, 313.15 K) of the same molecule?
Answer: 0.408

Question: What about the solubility (mole fraction) (in water, 283.15 K) of the same molecule?
Answer: 0.0091

Question: What about the solubility (mole fraction) (in water, 288.15 K) of the same molecule?
Answer: 0.015

Question: What about the solubility (mole fraction) (in water, 293.15 K) of the same molecule?
Answer: 0.0251

Question: What about the solubility (mole fraction) (in water, 298.15 K) of the same molecule?
Answer: 0.0408

Question: And the solubility (mole fraction) (in water, 303.15 K)?
Answer: 0.0665

Question: And the solubility (mole fraction) (in water, 308.15 K)?
Answer: 0.107

Question: And the solubility (mole fraction) (in water, 313.15 K)?
Answer: 0.173
